Data on four compounds can be found in patent publication EP1829539A2, “A method for treating tension-type headache” (priority 1996, dated 1998).

SMILES strings stand for the structures. Structures can show the parent of a compound that is named as a salt.

In one data set the test system is migraine. The following applies: in vivo; cited from earlier work.
The subject of a further data set is tension-type headache. As to conditions: Brennum et al. 1992, 1996; cited from earlier work.
Data set [1] concerns patients with chronic tension-type headache. Put plainly: Open labelled pilot study of prophylactic Dextromethorphan in chronic tension-type headache. It is filed as in vivo, human. From the text: Five patients with a diagnosis of chronic tension-type headache according to the International Headache Society (Headache Classification Committee 1988) were recruited from the outpatient headache clinic at Glostrup Hospital. There were 2 males and 3 females, and the mean age was 45.4 years (range 39-48). The mean life time duration of chronic tension-type headache was 12.2 years (range 4-25). One patient had coexisting but infrequent migraine. Exclusion criteria were: daily major medication (including prophylactic headache therapy); abuse of analgesics or alcohol; serious somatic or psychiatric diseases including depression.
Using an open labelled design, patients fulfilled a diagnostic headache diary during at least 4 weeks run-in period to ensure the diagnostic criteria. Thereafter, the patients received Dextromethorphan (Dexofan®) tablets at 30 mg each, three times per day. The treatment period lasted 4 weeks, and during this period patients were asked to continue with headache diaries, and record headache intensity, frequency, duration, any medication taken and any possible adverse events. At a follow up visit at day 29-32, diaries were collected and possible adverse events and evaluation of the treatment were recorded. Due to the restricted number of patients, no statistical analysis were done. The efficacy parameters were headache intensity, frequency and duration, and intake of simple analgesics. Mean values from the run-in period were compared to those obtained during the treatment period.

Another data set relates to GABA A. As to conditions: binding studies; cited from earlier work.
Data set [2] deals with patients with chronic tension-type headache. Nature of the data set: Open labelled pilot study of prophylactic Gabapentin in chronic tension-type headache. It is filed as in vivo, human. From the text:
Three patients with a diagnosis of chronic tension-type headache according to the International Headache Society (Headache Classification Committee 1988) were recruited from the outpatient headache clinic at Glostrup Hospital. The patients were males with a mean age of 42 years (range 35-49). The mean life time duration of chronic tension-type headache was 16 years (range 7-21). […] Exclusion criteria were: daily major medication (including prophylactic headache therapy); abuse of analgesics or alcohol; serious somatic or psychiatric diseases including depression.
Using an open labelled design, patients fulfilled a diagnostic headache diary during at least 4 weeks run-in period to ensure the diagnostic criteria. Thereafter, the patients received Gabapentin (Neurontin®) tablets, initially 300 mg (one tablet) per day on day one, increasing with 300 mg (1 tablet) per day to 900 mg (3 tablets) on day 3. The treatment period lasted 4 weeks, and during this period patients were asked to continue with headache diaries, and record headache intensity, frequency, duration, any medication taken and any possible adverse events. At a follow up visit at day 29-32, diaries were collected and any adverse events and evaluation of the treatment were recorded. Due to the low number of patients, no statistical analysis were done. The primary efficacy parameters were headache intensity, frequency and duration, and the mean values from the run-in period were compared to those obtained during the treatment period.

For data set [3], the system named is alpha-2-subunit of a calcium channel. As to conditions: Gee et al. 1996; cited from earlier work.
In data set [4] the test system is patients with chronic tension-type headache. Nature of the data set: Double-blind crossover study of intravenous L-NMMA versus placebo in chronic tension-type headache. It counts as in vivo, human. On the procedure: Five patients with coexisting infrequent migraine (≤ one day/month) were accepted. […] At screening, a full physical and neurological examination, including 12-lead ECG were carried out. Blood samples for routine haematological and biochemical testing, and urine sample for urinanalysis were taken. The patients were not allowed to take analgesics 12 hours prior to the treatment. […] All patients gave written informed consent to participate in the study, which was approved by the local ethics committee and conducted in accordance with the Declaration of Helsinki.
Using a double-blind crossover design, the patients were randomised to receive 6 mg/kg L-NMMA (Clinalfa, Switzerland) or placebo (isotone glucose) on two days with a typical episode of tension-type headache separated by at least one week. Randomisation (Med.Stat) and drug preparation were performed by staff not involved in the study. The medication was given over 15 minutes into an antecubital vein (Braun Perfusor). The following parameters were measured at baseline and 15, 30, 60 and 120 minutes post administration: headache intensity on a 100-mm Visual Analog Scale (VAS) (0 - no headache and 100 - worst imaginable headache) and on a Verbal Rating Scale (VRS) from 0-10 (0 - no headache; 5 - moderate headache; 10 - worst imaginable headache). Blood pressure and pulse rate were measured 5 minutes prior to administration of treatment and at 5, 10, 15, 20, 25, 30, 60, 90 and 120 minutes post administration. Twelve-lead ECG was monitored continuously. Any adverse events were recorded. Patients with unrelieved headache at 120 minutes post treatment were allowed to take rescue medication. All patients were asked to record details of the following on a diary card at 4, 8, 12, 16, 20 and 24 hours post administration: headache intensity on VRS, any medication taken and adverse events. Between 4-7 days after each treatment, the patients returned to the clinic, the diary cards were collected and any adverse events were noted.
The secondary endpoints were reduction of pain intensity at 30, 60, 90 and 120 minutes post dosing on VAS and VRS compared to pre-treatment pain score within each treatment. Comparison of pain intensity on VAS, blood pressure and pulse rate over time between treatments were performed with ANOVA. Paired-Samples T Test was used to compare pre-treatment pain score on VAS with pain score at 30, 60, 90, 120 minutes post dosing within each treatment. […] These sums of differences for each treatment were compared by Wilcoxon Signed Rank test. Five percent was accepted as level of significance.

Where [5] appears, read: 0-10 VAS intensity scale, mean, before treatment.
Where [6] appears, read: 100-mm VAS, 6 mg/kg L-NMMA i.v. over 15 minutes, mean (SD), p < 0.05 vs pretreatment.

As for `CNS(=O)(=O)Cc1ccc2[nH]cc(CCN(C)C)c2c1` [sumatriptan], in the data set on migraine, the Efficacy in migraine result was “highly effective”. In addition, in the data set on tension-type headache, the “Efficacy in tension-type headache” value is recorded as “not effective to a clinically relevant extent”.

For the compound `COc1ccc2c(c1)[C@]13CCCC[C@@H]1[C@H](C2)N(C)CC3` [Dextromethorphan], the “Intensity of headache during active treatment” value in data set [1] (0-10 VAS intensity scale, mean) was determined as 3.6. Besides, in data set [1] (setting [5]), the “Intensity of headache during the run-in period” value stood at 4.4. Besides, in data set [1] (before treatment), the “Frequency of headache during run-in” value is 28 days per 4 weeks period and the “Mean intake of analgesics during run-in period” value was determined as 1.8 dose per day. The “Patients reporting a marked effect” value in data set [1] (considerable relief of headache intensity and duration within very few days, of 5 patients) was “Two”. In data set [1] (in vivo), the “Frequency of headache during active treatment” value turned out to be 27 days per 4 weeks period and the “Mean intake of analgesics during active treatment” value is on record as 0.5 dose per day. In addition, in data set [1] (of 5 patients), the “Patients reporting no effect at all” value is “two”, the “Patients reporting no side effects” value was “Four” and the “Patients with a slight relief of headache intensity” value is “one”. The “Patients with marked side effects with sedation” value in data set [1] (the patient with best clinical response, diminished after dose reduction to 40 mg per day) is recorded as “one”. In addition, in data set [1] (treatment period (4 weeks, 30 mg three times per day) vs run-in, 5 patients), the “Reduction of intensity of headache” value amounted to 18%. Further, in data set [1] (treatment period vs run-in), the “Decrease of frequency of headache” value turned out to be 4%, the “Decrease of intake of analgesics” value was 72% and the “Reduction of duration of the individual headache episode” value is listed as 11%.

With `NCC1(CC(=O)O)CCCCC1` [Gabapentin], the “Affinity for GABA A” value in the data set on GABA A was “fail to show affinity”. Moreover, the “Headache intensity during active treatment” value in data set [2] (0-10 VAS intensity scale, mean, 4 weeks) is given as 3.6. The “Headache intensity during run-in period” value in data set [2] (setting [5]) is 5.5. Moreover, in data set [2] (before treatment), the “Frequency of headache during run-in period” value is 23.5 days per 4 weeks and the “Mean daily intake of analgesics, run-in” value was 1.1 dose per day. Besides, the “Individual response, one patient” value in data set [2] (complete relief of the headache after 2 days treatment) was “excellent effect”. Also, in data set [2] (disappeared completely after cessation of the drug intake), the “Side effects in the third patient” value is “sedation, vertigo and slight nausea”. Also, in data set [2] (in vivo), the “Frequency of headache during the active treatment period” value was 13 days per 4 weeks and the “Mean daily intake of analgesics, active treatment” value was 0.3 dose per day. Also, the “Individual response, third patient” value in data set [2] (on any of efficacy parameters) is listed as “no significant effect”. Also, the “Individual response, another patient” value in data set [2] (on headache intensity and frequency) was “moderate effect”. Further, the “Decrease of headache intensity” value in data set [2] (treatment period (4 weeks, up to 900 mg per day) vs run-in, 3 patients) was found to be 35%. In data set [2] (treatment period vs run-in), the “Decrease of frequency of headache” value is 45%, the “Decrease of mean daily intake of analgesics” value stood at 72% and the “Reduction of duration of the individual headache episode” value amounted to 8%. In addition, in data set [3], the “Binding affinity to the alpha-2-subunit of a calcium channel” value is given as “showed binding affinity”.

With `CNC(=N)NCCC[C@H](N)C(=O)O` [L-NMMA, L- N^G methyl arginine hydrochloride], in data set [4] (setting [6]), the “Pain scores on VAS, 30 minutes post dosing” value was 38 ± 18; the “Pain scores on VAS, 60 minutes post dosing” value is 35 ± 18; the “Pain scores on VAS, 90 minutes post dosing” value came out at 34 ± 21; the “Pain scores on VAS, 120 minutes post dosing” value is 33 ± 21. Further, the “Pain scores on VAS before treatment (Baseline)” value in data set [4] (100-mm VAS, pre-treatment value on the L-NMMA day, 16 patients, mean (SD)) is given as 49 ± 16. In addition, the “Pain intensity on VRS compared with placebo” value in data set [4] (Verbal Rating Scale 0-10, sum of differences, Wilcoxon, p=0.02) was “significantly lower after treatment with L-NMMA than after treatment with placebo”. Besides, the “Withdrawal from the study because of side effects” value in data set [4] (in vivo) is “No patients withdrew from the study because of side effects”. Moreover, the “Maximum decrease in pulse rate” value in data set [4] (occurred 10 minutes post dosing, 6 mg/kg i.v.) is reported as 16 ± 2%. Besides, in data set [4] (occurred 15 minutes post dosing, 6 mg/kg i.v.), the “Maximum increase in mean arterial blood pressure (MAP)” value came out at 12 ± 2%. Further, in data set [4] (of 16 patients), the “Patients reporting subjective symptoms in relation to the infusion” value was “Seven”, the “Subjective symptom: a feeling of tingling in arm (number of patients)” value came out at 1, the “Subjective symptom: drowsiness (number of patients)” value was determined as 1 and the “Subjective symptom: dryness of the mouth (number of patients)” value came to 3. In data set [4] (of 16 patients), the “Subjective symptom: exhaustion (number of patients)” value was 1, the “Subjective symptom: nausea (number of patients)” value is on record as 1 and the “Subjective symptom: tiredness (number of patients)” value came out at 2. Further, the “Patients who used simple analgesics as rescue medication” value in data set [4] (of 16 patients, 7 on placebo) was “Three”. Besides, the “Reduction of pain intensity (VAS) over time compared with placebo” value in data set [4] (primary endpoint, ANOVA, p=0.007, 16 patients, hydrochloride) was “reduced pain intensity (VAS) over time significantly more than placebo”.
